Data: publication PMC9351488 (Proceedings of the National Academy of Sciences of the …, 2022)
Counter-ions that a name gives are not always drawn.

Columns and labels:
Assay type in all cases: in vivo, mouse
[1] = system: spinal cord of naïve WT mice; test: Spinal cord immunohistochemistry; conditions: i.t. daily for 7 d, H-20 30 nmol or morphine 2 nmol
mice [2] = test: Antinociceptive tolerance in CFA model; conditions: i.t. 7 consecutive days, H-20 30 nmol or morphine 20 nmol
mice [3] = test: Conditioned place preference; conditions: i.t. H-20 30 nmol or morphine 2 nmol
mice [4] = test: Open field test; conditions: i.t., 30 min before test
mice [5] = test: Rotarod test; conditions: i.t. H-20 30 nmol or morphine 2 nmol, 15 to 120 min
naïve WT mice = test: Acute itch behaviors; conditions: i.t., counted within 30 min, morphine 2 nmol

CN1CC[C@]23c4c5ccc(O)c4O[C@H]2[C@@H](O)C=C[C@H]3[C@H]1C5 [morphine, Morphine hydrochloride]
microglial activation in spinal cord [1]: induced significant microglial activation | number of c-Fos–positive neurons in spinal cord [1]: markedly increased the number of c-Fos–positive neurons | antiallodynic effect after repeated injection (tolerance) (mice [2]): significantly decreased on test day 7 | CPP response (mice [3]): significant increase in the drug-treated chamber | time in center area and frequency of entry into central zone (anxiety) (mice [4]): No intergroup differences were observed | time on rotarod (mice [5]): did not change the length of time | itch-related scratching behaviors (naïve WT mice): significantly evoked itch-related scratching behaviors
